Measurements: patent US10669313B2, “Multitarget-directed bio-inorganic hybrid structure” (INDUSTRY-ACADEMIC COOPERATION FOUNDATION, YONSEI UNIVERSITY, priority 2016, dated 2020)

What was measured:
[1] = test system: Rev-mediated RRE export (RRE: Rev: Crm1 interactions); assay: Nucleocytoplasmic export assay (CAT assay) based on plasmid pDM128 in HeLa cells; type: cell-based, HIV-1; details: HeLa cells co-transfected with pDM128 and pSV2-Rev
Procedure: Lastly, multitarget-binding and inhibitory capabilities of hetero-SPCHs were examined. To evaluate the inhibition of Rev-mediated RRE export, a nucleocytoplasmic export assay based on plasmid pDM128 expressing RRE (see FIG. 23) was performed.
Referring to FIG. 24, as shown in a chloramphenicol acetyltransferase (CAT) assay (lane 3), co-transfection of pDM128 with pSV2-Rev (Rev-expressing plasmid) in HeLa cells enables an effective nucleocytoplasmic export of RRE RNA. In contrast, negligible CAT activity was observed when the cells were co-transfected with pBluescript KS(+) (negative control plasmid) (lane 2).
In addition, to confirm whether nucleocytoplasmic export mediated by RRE: Rev: Crm1 interactions could be inhibited by peptide-CNT hybrids, the cells were treated with hetero-(A&N)-SPCHs.
HeLa cells were incubated under 5% CO2 at 37° C. in DMEM supplemented with 10% FBS and 1% pen/strep. 4×10^4 of the incubated cells were distributed into a 48-well plate, and then incubated under 5% CO2 at 37° C. overnight. Subsequently, the resulting cells were washed with DPBS, and then a plasmid (total 250 ng; pDM128, pBluescript II KS (+), pSV2-Rev) complexed with 0.7 μL of a jetPEI DNA transfection reagent was added to each well. […]
The samples were normalized with the concentrations of proteins measured by a BCA assay (BCA protein assay kit; Pierce, USA). […]

[2] = test system: cyc-ARM peptide on SWCNT (homo-ARM-SPCH) (HIV-1 (Rev ARM, synthetic)); assay: competition; details: hybrid concentration for complete exchange of 6 uM Rev from 100 nM RRE by EMSA; stated about 10,000 times stronger RRE binding than Rev

Compound: CCC(=C/[C@H](C)C/C=C/C(C)=C/[C@@H](C)C(=O)[C@@H](C)[C@H](O)[C@@H](C)C/C(C)=C/C(=O)O)/C=C/[C@@H]1OC(=O)C=C[C@@H]1C [LMB, leptomycin B]
- concentration required to completely inhibit the RRE export [1]: 100 nM

Compound: GGGCGAAUUGGAGCUCGCUAUGUUCCUUGGGUUCUUGGGAGCAGCAGGAAGCACUAUGGGCGCAGUGUCAUUGACGCUGACGGUACAGGCCAGACAAUUAUUGUCUGGUAUAGUGCAACAGCAGAACAAUUUGCUGAGGGCUAUUGAGGCGCAACAACAUCUGUUGCAACUCACAGUCUGGGGCAUCAAGCAGCUCCAGGCAAGAGUCCUGGCUGUGGAAAGAUACCUAAGGGAUCAACAGCUCCUAGGGAUG [full-length RRE RNA transcript (253 nt)]
- binding [2]: 600 pM
